{
  "source": "patent US6906108B2",
  "about": "“Extracts of vetiver oil as repellent and toxicant to ants, ticks, and cockroaches” (Board of Supervisors of Louisiana State University and …, priority 2001, dated 2005)",
  "key": {"[1]": {"test_system": "cat fleas (Ctenocephalides felis (Bouche))", "assay": "Cat flea Petri dish filter paper bioassay (repellency and mortality)", "type": "in vivo", "experimental": "To test the effectiveness of nootkatone against fleas, cat fleas (Ctenocephalides felis (Bouche)) were collected from a flea colony at St. Gabriel, La.\nPetri dishes (5 cm diameter and 1 cm height) were prepared by lining one half of the top and the bottom with a half circle of filter paper (55 mm), and lining the other half with a second half circle of filter paper. For the treated Petri dishes, 50 mg nootkatone or 100 mg REPEL® were dissolved in 0.5 ml ethanol. […] Ten replicate Petri dishes were used for each of the treatments. The ethanol solution was added to the filter paper on the top and bottom and dried for 10 min. To place the fleas in the Petri dishes, fleas were temporarily immobilized by placing them at −20° C. for 5 min. The number of fleas in each Petri dish varied: for the 10 control Petri dishes, the average number in each dish was 10.2, with a range of 4 to 23; for 0.2 mg nootkatone, the average number in each dish was 8.5, with a range of 5 to 18; for 1 mg nootkatone, the average number in each dish was 10.6, with a range of 6 to 21; for 2 mg nootkatone, the average number in each dish was 11.1, with a range of 9 to 15 (Fleas could be counted in only 9 Petri dishes; one had too many fleas to count); and for 2.76 mg Deet, the average number in each dish was 6.7, with a range of 5 to 9.\nThe number of fleas on each side of each Petri dish was counted at 1 hr, 2 hr, 3 hr, 4 hr, 24 hr, 48 hr, 72 hr, and 96 hr."}, "[2]": {"test_system": "Imported red fire ants, Solenopsis invicta", "assay": "Fire ant three-chambered container bioassay with treated sand (repellency and mortality)", "type": "in vivo", "details": "for Percent ants in the sand area after 15 min / Number of ants (% ± SE) in the sand area after 15 min (test after 40 days): mean ± SE; for Living ants found in the sand area over seven days: FIG. 1; for Living ants found in the sand area over 7 days: FIG. 3", "description": "Nootkatone was purchased from a commercial source (Lancaster Synthesis Inc. Windham, N.H.). The source of the vetiver oil was The Good Scents Company (Oak Creek, Wis.). Three-chambered clear plastic containers (17×8×4 cm; Pioneer Packaging Co., North Dixon, Ky.) were used to test the effect of nootkatone and vetiver oil on the fire ants. Each rectangular container (17×8×4 cm) was divided into three equal compartments with two inner walls. A small hole (0.5 cm diameter) was melted at the bottom of each of the inner walls to permit fire ant access to all chambers. The top inner sides of the containers were coated with FLUON® (Northern Products, Inc., Woonsocket, R.I.) to prevent ants from escaping. Into the far left chamber, designated the “nest area,” was placed a 55 mm #2 Whatman filter paper circle (Whatman International, Maidstone, England) moistened with 0.5 ml ddH2O to serve as a substrate. For a food source, a second 55 mm #2 Whatman filter paper circle was moistened with 0.5 ml 10% sucrose solution and placed in the far right chamber (“feeding area”). In the middle chamber, 30 g of #4 fine blasting sand (Easy Crete, Inc., Greenwell Springs, La.) moistened with 3 ml ddH2O was added. The sand had previously been treated by mixing with ethanol only (the controls) or with ethanol and solutions of nootkatone or vetiver oil to obtain final concentrations of 10 μg/g sand and 100 μg/g sand. The treated sand was allowed to air-dry for 2 hr in a ventilated hood before placing into the container.\nImported red fire ants, Solenopsis invicta, were collected the day before beginning the experiment from two Louisiana colonies (Colony A and Colony B) whose nests were 50 m apart. For each container, 30 workers were placed in the nest area in a small Petri dish (3.5 cm diameter) with the lid closed initially. The total number of containers was 30; 15 for each colony. For each colony, three replicates were established for each of the following treatments: a control; 10 μg/g nootkatone ([…]), 100 μg/g nootkatone (“Noot-100”), 10 μg/g vetiver oil (“Vet-10”), […].\nAfter the ants were acclimated, the lid on the Petri dish was removed. Ant behavior was observed during the first 15 min for the following: time for the first ant to cross into the middle chamber; time for the first ant to cross into the feeding area; and number of ants in the middle chamber after 5, 10, and 15 min. The plastic containers were kept closed with lids in a thermostatic chamber at 27° C. for one week. Each day at the same time, the numbers of live and dead ants in each chamber were noted.\nTo test for effectiveness of nootkatone and vetiver oil after the passage of time, the above experiment was repeated 40 days later with sand that had been treated at the same time as the above experiment. For 40 days, the sand had been maintained in separate chambers with non-hermetic lids in a dark room at room temperature. For this second experiment, fire ants were freshly collected from two different Louisiana colonies.\nThe number of ants, expressed as a percent of the total number in the container, found in the treated area after the first 15 minutes was compared using a two-way ANOVA followed by Newman-Keuls post-hoc test, considering the factors “colony” (A, B) and “treatment” (Control, Noot-100, Noot-10, Vet-100, Vet-10). Data for both the number of live and dead ants (expressed as percent of the total) during the seven days of the experiment were analyzed with 2-way ANOVA for repeated measures followed by Newman-Keuls post-hoc tests, considering the variables “colony” and “treatment” and the variable “day” as the repeated factor. All data were analyzed using Statistica 5.5 (1999 edition, Statsoft Inc., Tulsa, Okla.)."}},
  "data": [
    {"compound": "C=C(C)C1CCC2=CC(=O)CC(C)C2(C)C1", "note": "(centres unmarked) [nootkatone, 4,4a,5,6,7,8-hexahydro-6-isopropenyl-4,4a-dimethyl-2(3H)-naphthalone]", "values": [
      {"measurement": "Percent Flea Mortality", "setting": "[1]; 0.2 mg per dish, 1 hr", "value": 0, "unit": "%"},
      {"measurement": "Percent Flea Mortality", "setting": "[1]; 0.2 mg per dish, 2 hr", "value": 0, "unit": "%"},
      {"measurement": "Percent Flea Mortality", "setting": "[1]; 0.2 mg per dish, 3 hr", "value": 0, "unit": "%"},
      {"measurement": "Percent Flea Mortality", "setting": "[1]; 0.2 mg per dish, 4 hr", "value": 0, "unit": "%"},
      {"measurement": "Percent Flea Mortality", "setting": "[1]; 0.2 mg per dish, 24 hr", "value": 22, "unit": "%"},
      {"measurement": "Percent Flea Mortality", "setting": "[1]; 0.2 mg per dish, 48 hr", "value": 45, "unit": "%"},
      {"measurement": "Percent Flea Mortality", "setting": "[1]; 0.2 mg per dish, 72 hr", "value": 72, "unit": "%"},
      {"measurement": "Percent Flea Mortality", "setting": "[1]; 0.2 mg per dish, 96 hr", "value": 79, "unit": "%"},
      {"measurement": "Repellent activity against fleas", "setting": "[1]; 0.2 mg, 1 mg and 2 mg per dish", "value": "no repellent activity"},
      {"measurement": "Toxicant activity against fleas", "setting": "[1]; 0.2 mg, 1 mg and 2 mg per dish", "value": "only delayed toxicant activity"},
      {"measurement": "Percent Flea Mortality", "setting": "[1]; 1 mg per dish, 1 hr", "value": 0, "unit": "%"},
      {"measurement": "Percent Flea Mortality", "setting": "[1]; 1 mg per dish, 2 hr", "value": 0, "unit": "%"},
      {"measurement": "Percent Flea Mortality", "setting": "[1]; 1 mg per dish, 3 hr", "value": 16, "unit": "%"},
      {"measurement": "Percent Flea Mortality", "setting": "[1]; 1 mg per dish, 4 hr", "value": 38, "unit": "%"},
      {"measurement": "Percent Flea Mortality", "setting": "[1]; 1 mg per dish, 24 hr", "value": 66, "unit": "%"},
      {"measurement": "Percent Flea Mortality", "setting": "[1]; 1 mg per dish, 48 hr", "value": 92, "unit": "%"},
      {"measurement": "Percent Flea Mortality", "setting": "[1]; 1 mg per dish, 72 hr", "value": 89, "unit": "%"},
      {"measurement": "Percent Flea Mortality", "setting": "[1]; 1 mg per dish, 96 hr", "value": 98, "unit": "%"},
      {"measurement": "Percent Flea Mortality", "setting": "[1]; 2 mg per dish, 1 hr", "value": 0, "unit": "%"},
      {"measurement": "Percent Flea Mortality", "setting": "[1]; 2 mg per dish, 2 hr", "value": 0, "unit": "%"},
      {"measurement": "Percent Flea Mortality", "setting": "[1]; 2 mg per dish, 3 hr", "value": 26, "unit": "%"},
      {"measurement": "Percent Flea Mortality", "setting": "[1]; 2 mg per dish, 4 hr", "value": 50, "unit": "%"},
      {"measurement": "Percent Flea Mortality", "setting": "[1]; 2 mg per dish, 24 hr", "value": 77, "unit": "%"},
      {"measurement": "Percent Flea Mortality", "setting": "[1]; 2 mg per dish, 48 hr", "value": 84, "unit": "%"},
      {"measurement": "Percent Flea Mortality", "setting": "[1]; 2 mg per dish, 72 hr", "value": 91, "unit": "%"},
      {"measurement": "Percent Flea Mortality", "setting": "[1]; 2 mg per dish, 96 hr", "value": 94, "unit": "%"},
      {"measurement": "Percent ants in the sand area after 15 min", "setting": "[2]; 10 μg/g sand, sand treated 2 hr prior", "value": "23.89 ± 3.35", "unit": "b %"},
      {"measurement": "Number of ants (% ± SE) in the sand area after 15 min (test after 40 days)", "setting": "[2]; 10 μg/g sand, sand treated 40 days prior", "value": "26.11 ± 3.07", "unit": "b %"},
      {"measurement": "Percent ants in the sand area after 15 min", "setting": "[2]; 100 μg/g sand, sand treated 2 hr prior", "value": "13.33 ± 2.42", "unit": "b %"},
      {"measurement": "Number of ants (% ± SE) in the sand area after 15 min (test after 40 days)", "setting": "[2]; 100 μg/g sand, sand treated 40 days prior", "value": "13.89 ± 1.99", "unit": "b %"},
      {"measurement": "Living ants found in the sand area over seven days", "setting": "[2]; highest concentration (100 μg/g), sand treated 2 hr prior", "value": "Almost no ants"},
      {"measurement": "Cumulative mortality over 7 days", "setting": "[2]; highest concentration (100 μg/g), sand treated 2 hr prior, FIG. 2", "value": "highest"},
      {"measurement": "Living ants found in the sand area over 7 days", "setting": "[2]; highest concentration (100 μg/g), sand treated 40 days prior", "value": "Almost no ants"},
      {"measurement": "Cumulative mortality over 7 days", "setting": "[2]; highest concentration (100 μg/g), sand treated 40 days prior, FIG. 4", "value": "always greatest"},
      {"measurement": "Cumulative mortality over 7 days", "setting": "[2]; lower concentration (10 μg/g), sand treated 40 days prior, compared with highest concentration, FIG. 4", "value": "significantly lower"},
      {"measurement": "Living ants found in the sand area over seven days", "setting": "[2]; lowest concentration (10 μg/g), sand treated 2 hr prior, vs controls", "value": "substantially lower numbers of ants"},
      {"measurement": "Living ants found in the sand area over 7 days", "setting": "[2]; lowest concentration (10 μg/g), sand treated 40 days prior, vs controls", "value": "significantly lower numbers of ants"},
      {"measurement": "Effectiveness forty days after the initial application", "setting": "[2]; sand treated 40 days prior", "value": "still effective"}
    ]}
  ]
}
